Results reported in ChEMBL document CHEMBL4420076, “Amylin and calcitonin receptor agonist” (2017).
pEC50, pIC50: −log10 of the molar value. Numbered stars: 1 amine (or outer) side, 2 acyl side, 3 side chain; on linkers, the order of the positions; unused ones are H or OH. Peptide text beside a SMILES is read from it. * marks the point of attachment. C20 diacid = O=C(O)CCCCCCCCCCCCCCCCCCC(=O)*; C18 diacid = O=C(O)CCCCCCCCCCCCCCCCC(=O)*; γGlu = O=C(O)[C@H](CCC(=O)[*:2])N[*:1]; C14 diacid = O=C(O)CCCCCCCCCCCCC(=O)*

Assays:
Calcitonin receptor [1] = biological target: T1, Calcitonin receptor (Homo sapiens, UniProt P30988); assay: Agonist activity at human calcitonin receptor expressed in BHK570 cells assessed as increase in intracellular cAMP concentration incubated for 3 hrs in absence of albumin by CRE luciferase reporter gene assay; format: functional, cell-based
T1 sequence (P30988 whole entry): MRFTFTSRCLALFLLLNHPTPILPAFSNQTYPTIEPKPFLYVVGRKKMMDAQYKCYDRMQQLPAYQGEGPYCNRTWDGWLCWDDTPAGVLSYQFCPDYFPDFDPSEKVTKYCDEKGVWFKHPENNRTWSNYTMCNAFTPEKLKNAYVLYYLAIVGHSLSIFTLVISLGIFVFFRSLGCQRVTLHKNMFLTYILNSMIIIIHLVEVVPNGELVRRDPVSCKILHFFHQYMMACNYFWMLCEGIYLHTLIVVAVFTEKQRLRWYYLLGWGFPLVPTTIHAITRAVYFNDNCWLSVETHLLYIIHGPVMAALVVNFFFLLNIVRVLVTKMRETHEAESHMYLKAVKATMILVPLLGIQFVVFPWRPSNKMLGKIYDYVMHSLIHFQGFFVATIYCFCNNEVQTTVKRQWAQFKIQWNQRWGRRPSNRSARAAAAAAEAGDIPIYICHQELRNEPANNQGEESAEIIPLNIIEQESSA

[2] = Solubility in 100 mM glycylglycine buffer at pH 3.0 incubated for 18 hrs by UPLC analysis; format: physicochemical
[3] = Solubility in 100 mM bistrispropane buffer at pH 7.0 incubated for 18 hrs by UPLC analysis; format: physicochemical
[4] = Stability in pH 7.5 buffer assessed as compound recovery at 1 uM by Thioflavin T based fluorescence assay; format: physicochemical; details: read-out: Drug recovery
Calcitonin receptor [5] = biological target: T1, Calcitonin receptor; assay: Displacement of [125I]-labeled human calcitonin from human calcitonin receptor expressed in BHK tkts13 cell membranes incubated for 1 hr by scintillation proximity assay
[6] = Stability in pH 7.5 buffer assessed as lag time for fibril formation at 1 uM by Thioflavin T based fluorescence assay; format: physicochemical; details: pH 7.5, 1 µM
[7] = Solubility in 100 mM bistrispropane buffer at pH 7.5 incubated for 18 hrs by UPLC analysis; format: physicochemical
[8] = Solubility in 100 mM glycylglycine buffer at pH 5.0 incubated for 18 hrs by UPLC analysis; format: physicochemical
[9] = Solubility in 100 mM bistrispropane buffer at pH 6.0 incubated for 18 hrs by UPLC analysis; format: physicochemical
[10] = biological target: T2, Amylin receptor AMY3; CALCR/RAMP3 (Rattus norvegicus, UniProt P32214+Q9JJ73); assay: Displacement of [125I]-labeled rat amylin from rat amylin receptor expressed in BHK tkts13 cell membranes co-expressing RAMP3 incubated for 120 mins by scintillation proximity assay
T2 sequence (P32214 whole entry): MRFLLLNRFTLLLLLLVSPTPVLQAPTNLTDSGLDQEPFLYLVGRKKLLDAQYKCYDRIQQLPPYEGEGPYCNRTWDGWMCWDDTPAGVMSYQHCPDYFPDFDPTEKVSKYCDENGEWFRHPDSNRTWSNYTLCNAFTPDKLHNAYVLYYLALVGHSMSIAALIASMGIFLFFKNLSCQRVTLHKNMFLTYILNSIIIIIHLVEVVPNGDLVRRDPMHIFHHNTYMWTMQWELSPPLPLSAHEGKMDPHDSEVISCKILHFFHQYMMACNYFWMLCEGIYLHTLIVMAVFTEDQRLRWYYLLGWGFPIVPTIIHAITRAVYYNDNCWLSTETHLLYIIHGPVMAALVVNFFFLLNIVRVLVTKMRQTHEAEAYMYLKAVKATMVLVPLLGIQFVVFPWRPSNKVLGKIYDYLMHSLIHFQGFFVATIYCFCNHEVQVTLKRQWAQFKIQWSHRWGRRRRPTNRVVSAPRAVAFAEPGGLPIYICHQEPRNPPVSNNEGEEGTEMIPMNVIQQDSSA
T2 sequence (Q9JJ73 whole entry): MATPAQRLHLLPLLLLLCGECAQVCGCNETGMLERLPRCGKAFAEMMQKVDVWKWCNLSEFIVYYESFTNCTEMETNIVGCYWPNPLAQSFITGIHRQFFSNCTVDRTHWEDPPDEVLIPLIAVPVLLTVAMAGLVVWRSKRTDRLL

[11] = biological target: T3, Amylin receptor AMY3; CALCR/RAMP3 (Homo sapiens, UniProt O60896+P30988); assay: Displacement of [125I]-labeled rat amylin from human amylin receptor expressed in BHK570 cell membranes co-expressing RAMP3 incubated for 120 mins by scintillation proximity assay
T3 sequence (P30988 whole entry): T1 sequence (P30988 whole entry)
T3 sequence (O60896 whole entry): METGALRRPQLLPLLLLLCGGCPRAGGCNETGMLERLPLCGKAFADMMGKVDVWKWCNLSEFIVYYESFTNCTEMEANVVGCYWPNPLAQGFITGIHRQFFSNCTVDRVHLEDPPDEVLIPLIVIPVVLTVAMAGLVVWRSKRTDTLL

[12] = Solubility in 100 mM bistrispropane buffer at pH 8.0 incubated for 18 hrs by UPLC analysis; format: physicochemical
[13] = biological target: T3, Amylin receptor AMY3; CALCR/RAMP3; assay: Agonist activity at human amylin receptor expressed in BHK570 cells co-expressing RAMP3 assessed as increase in intracellular cAMP concentration incubated for 3 hrs in absence of albumin by CRE luciferase reporter gene assay; format: functional, cell-based
[14] = Solubility in 100 mM glycylglycine buffer at pH 4.0 incubated for 18 hrs by UPLC analysis; format: physicochemical
[15] = Solubility in 100 mM bistrispropane buffer at pH 6.5 incubated for 18 hrs by UPLC analysis; format: physicochemical
Rattus norvegicus [16] = assay: Reduction in food intake in Sprague-Dawley rat at 3 nmol/kg measured 0 to 24 hrs post dose relative to control; format: functional; parameters: scale not given: the % may be the effect or the level left
[17] = biological target: T3, Amylin receptor AMY3; CALCR/RAMP3; assay: Agonist activity at human amylin receptor expressed in BHK570 cells co-expressing RAMP3 assessed as increase in intracellular cAMP concentration incubated for 3 hrs in presence of 10% FBS by CRE luciferase reporter gene assay; format: functional, cell-based
Rattus norvegicus [18] = assay: Reduction in food intake in Sprague-Dawley rat at 3 nmol/kg measured 24 to 48 hrs post dose relative to control; format: functional; parameters: scale not given: the % may be the effect or the level left
Calcitonin receptor [19] = biological target: T1, Calcitonin receptor; assay: Agonist activity at human calcitonin receptor expressed in BHK570 cells assessed as increase in intracellular cAMP concentration incubated for 3 hrs in presence of 10% FBS by CRE luciferase reporter gene assay; format: functional, cell-based
[20] = biological target: T3, Amylin receptor AMY3; CALCR/RAMP3; assay: Displacement of [125I]-labeled rat amylin from human amylin receptor expressed in BHK tkts13 whole cells co-expressing RAMP3 incubated for 60 mins by scintillation proximity assay; format: cell-based

| SMILES | pEC50 (Calcitonin receptor [1]) | solubility at 18 h [2] | solubility at 18 h [3] | remaining at 1 µM [4] | pIC50 (Calcitonin receptor [5]) | Time [6] | solubility at 18 h [7] | solubility at 18 h [8] | solubility at 18 h [9] | pIC50 [10] | pIC50 [11] | solubility at 18 h [12] | pEC50 [13] | solubility at 18 h [14] | solubility at 18 h [15] | Activity (Rattus norvegicus [16]) | pEC50 [17] | Activity (Rattus norvegicus [18]) | pEC50 (Calcitonin receptor [19]) | pIC50 [20] |
| --- | --- | --- | --- | --- | --- | --- | --- | --- | --- | --- | --- | --- | --- | --- | --- | --- | --- | --- | --- | --- |
| CC(C)C[C@H](NC(=O)[C@H](C)NC(=O)[C@H](C)NC(=O)[C@@H](NC(=O)[C@H](CO)NC(=O)[C@H](CC(C)C)NC(=O)[C@H](CCC(=O)O)NC(=O)[C@H](CO)NC(=O)[C@H](C)NC(=O)CC[C@H](NC(=O)CCCCCCCCCCCCC(=O)O)C(=O)O)[C@@H](C)O)C(=O)NCC(=O)N[C@@H](CCCNC(=N)N)C(=O)N[C@@H](CC(C)C)C(=O)N[C@@H](CO)C(=O)N[C@@H](C)C(=O)N[C@@H](CCC(=O)O)C(=O)N[C@@H](CC(C)C)C(=O)N[C@@H](Cc1cnc[nH]1)C(=O)N[C@@H](CCC(=O)O)C(=O)N[C@@H](CC(C)C)C(=O)N[C@@H](C)C(=O)N[C@H](C(=O)N[C@@H](CC(C)C)C(=O)N1CCC[C@H]1C(=O)N[C@@H](CCCNC(=N)N)C(=O)N[C@H](C(=O)N[C@@H](CCC(=O)O)C(=O)N[C@H](C(=O)NCC(=O)N[C@@H](CO)C(=O)NCC(=O)N[C@@H](CO)C(=O)N1CCC[C@H]1C(N)=O)[C@@H](C)O)[C@@H](C)O)[C@@H](C)O ({C14 diacid-γGlu}-ASELSTAALGRLSAELHELATLPRTETGSGSP-NH2) | 11.40 | ≥ 200 µM | ≥ 200 µM | 98% | 10.64 | > 45 h | ≥ 200 µM | ≥ 200 µM | ≥ 200 µM | 9.91 | 10.27 | ≥ 200 µM | 11.22 | ≥ 200 µM | ≥ 200 µM |  |  |  |  |  |
| CC(C)C[C@H](NC(=O)[C@H](C)NC(=O)[C@H](C)NC(=O)[C@@H](NC(=O)[C@H](CO)NC(=O)[C@H](CC(C)C)NC(=O)[C@H](CCC(=O)O)NC(=O)[C@H](CO)NC(=O)[C@H](C)NC(=O)CCCCCCCCCCCCCCCCC(=O)O)[C@@H](C)O)C(=O)NCC(=O)N[C@@H](CCCNC(=N)N)C(=O)N[C@@H](CC(C)C)C(=O)N[C@@H](CO)C(=O)N[C@@H](C)C(=O)N[C@@H](CCC(=O)O)C(=O)N[C@@H](CC(C)C)C(=O)N[C@@H](Cc1cnc[nH]1)C(=O)N[C@@H](CCC(=O)O)C(=O)N[C@@H](CC(C)C)C(=O)N[C@@H](C)C(=O)N[C@H](C(=O)N[C@@H](CC(C)C)C(=O)N1CCC[C@H]1C(=O)N[C@@H](CCCNC(=N)N)C(=O)N[C@H](C(=O)N[C@@H](CCC(=O)O)C(=O)N[C@H](C(=O)NCC(=O)N[C@@H](CO)C(=O)NCC(=O)N[C@@H](CO)C(=O)N1CCC[C@H]1C(N)=O)[C@@H](C)O)[C@@H](C)O)[C@@H](C)O ({C18 diacid}-ASELSTAALGRLSAELHELATLPRTETGSGSP-NH2) | 10.77 | ≥ 200 µM | ≥ 200 µM |  | 10.47 |  | ≥ 200 µM | ≥ 200 µM | ≥ 200 µM | 10.20 | 10.11 | ≥ 200 µM | 10.74 | ≥ 200 µM | ≥ 200 µM | 52% | 11.05 | 11% | 11.10 |  |
| CC(C)C[C@H](NC(=O)CNC(=O)[C@H](CO)NC(=O)[C@H](C)NC(=O)CC[C@H](NC(=O)CCCCCCCCCCCCCCCCCCC(=O)O)C(=O)O)C(=O)N[C@@H](CO)C(=O)N[C@H](C(=O)N[C@@H](C)C(=O)N[C@@H](C)C(=O)N[C@@H](CC(C)C)C(=O)NCC(=O)N[C@@H](CCCNC(=N)N)C(=O)N[C@@H](CC(C)C)C(=O)N[C@@H](CO)C(=O)N[C@@H](CCC(N)=O)C(=O)N[C@@H](CCC(=O)O)C(=O)N[C@@H](CC(C)C)C(=O)N[C@@H](Cc1cnc[nH]1)C(=O)N[C@@H](CCC(=O)O)C(=O)N[C@@H](CC(C)C)C(=O)N[C@@H](CCC(N)=O)C(=O)N[C@H](C(=O)N[C@@H](Cc1ccc(O)cc1)C(=O)N1CCC[C@H]1C(=O)N[C@@H](Cc1cnc[nH]1)C(=O)N[C@H](C(=O)N[C@@H](CCC(=O)O)C(=O)N[C@H](C(=O)NCC(=O)N[C@@H](CO)C(=O)NCC(=O)N[C@H](C(=O)N[C@@H](Cc1ccc(O)cc1)C(N)=O)[C@@H](C)O)[C@@H](C)O)[C@@H](C)O)[C@@H](C)O)[C@@H](C)O ({C20 diacid-γGlu}-ASGLSTAALGRLSQELHELQTYPHTETGSGTY-NH2) | 10.57 | ≥ 200 µM | ≥ 200 µM |  | 9.82 |  | ≥ 200 µM |  | ≥ 200 µM | 10.59 | 9.78 | ≥ 200 µM | 10.39 | ≥ 200 µM | ≥ 200 µM | 20% |  | 14% | 10.00 | 9.85 |
| CC(C)C[C@H](NC(=O)[C@H](C)NC(=O)[C@H](C)NC(=O)[C@@H](NC(=O)[C@H](CO)NC(=O)[C@H](CC(C)C)NC(=O)[C@H](CCC(=O)O)NC(=O)[C@H](CO)NC(=O)[C@H](C)NC(=O)CC[C@H](NC(=O)CCCCCCCCCCCCCCCCCCC(=O)O)C(=O)O)[C@@H](C)O)C(=O)NCC(=O)N[C@@H](Cc1cnc[nH]1)C(=O)N[C@@H](CC(C)C)C(=O)N[C@@H](CO)C(=O)N[C@@H](C)C(=O)N[C@@H](CCC(=O)O)C(=O)N[C@@H](CC(C)C)C(=O)N[C@@H](Cc1cnc[nH]1)C(=O)N[C@@H](CCC(=O)O)C(=O)N[C@@H](CC(C)C)C(=O)N[C@@H](C)C(=O)N[C@H](C(=O)N[C@@H](CC(C)C)C(=O)N1CCC[C@H]1C(=O)N[C@@H](CCCNC(=N)N)C(=O)N[C@H](C(=O)N[C@@H](CCC(=O)O)C(=O)N[C@H](C(=O)NCC(=O)N[C@@H](CO)C(=O)NCC(=O)N[C@@H](CO)C(=O)N1CCC[C@H]1C(N)=O)[C@@H](C)O)[C@@H](C)O)[C@@H](C)O ({C20 diacid-γGlu}-ASELSTAALGHLSAELHELATLPRTETGSGSP-NH2) | 10.92 | ≥ 200 µM | ≥ 200 µM |  | 10.01 |  | ≥ 200 µM | ≥ 200 µM | ≥ 200 µM | 8.82 | 9.25 | ≥ 200 µM | 10.77 | ≥ 200 µM | ≥ 200 µM | 17% |  | 11% | 10.32 | 9.16 |
